In patent US8258103B2, “Pesticidal composition” (Sumitomo Chemical Company, Limited, priority 2007, dated 2012):

Assays:
Spodoptera litura [1] = assay: Test Example 1: cabbage leaf immersion test, insecticidal rate on fourth-instar larvae; assay type: in vivo; settings: for Found value of insecticidal rate (%): after 2 days
Procedure: (§1) The theoretical value of an insecticidal (ovicidal) rate obtained by using a mixture of 2 kinds of active ingredients was calculated by the following formula: E=X+Y−(X×Y/100), which conforms to the Colby's formula. X: Insecticidal rate (%) of the active ingredient A at M Ppm Y: Insecticidal rate (%) of the active ingredient B at N ppm E: Theoretical insecticidal rate (%) of combination use of the active ingredient A at M ppm and the active ingredient B at N ppm
(§2) When an actual insecticidal (ovicidal) rate exceeds the theoretical value, it is determined that the used two active ingredients produce a synergetic effect.
(1) 12 parts of spinetoram as the present compound 1, 35 parts of a carrier on which a polyoxyethylene alkyl ether sulfate ammonium salt and white carbon in a weight ratio of 1:1 were adsorbed, and 53 parts of water were mixed, and finely milled by a wet milling method to obtain a spinetoram formulation (hereinafter, referred to as the formulation A).
(2) A flowable formulation containing 10 parts of pyridalyl, which is the present compound 2, as the active ingredient (trade name: PLEO flowable, manufactured by Sumitomo Chemical Co., Ltd.) (hereinafter, referred to as the formulation B) was used.
(3) The formulation A was diluted with water to prepare a water dilution having an active ingredient concentration shown in Table 1. To the water dilution, 1/5,000 volume of a spreading agent (Sindain, manufactured by Sumitomo Chemical Takeda Agro Co., Ltd.) was added to prepare a test solution containing the present compound 1. The formulation B was diluted with water to prepare a water dilution having an active ingredient concentration shown in Table 1. To the water dilution, 1/5,000 volume of a spreading agent (Sindain, manufactured by Sumitomo Chemical Takeda Agro Co., Ltd.) was added to prepare a test solution containing the present compound 2.
(§3) A water dilution of the formulation A and a water dilution of the formulation B were mixed so that the respective active ingredients could reach concentrations shown in Table 1. To the mixture, 1/5,000 volume of a spreading agent (Sindain, manufactured by Sumitomo Chemical Takeda Agro Co., Ltd.) was added to prepare a test solution containing the present compound 1 and the present compound 2.
(§4) (4) A cabbage was planted in a pot and grown until the fourth leaf stage. The leaves of the cabbage were cut off one by one, and then immersed in the above-described test solution for 60 seconds. After air drying, the cabbage leaves were each placed in a cup with a filter paper spread on the bottom. Ten fourth-instar larvae of Spodoptera litura were released into each cup. […] An insecticidal rate was calculated and corrected according to the following formula.
Insecticidal rate (%)=100×(Mt−Mc)/(100−Mc)
(§5) Mt: Worm death rate (%) in a section treated with a test compound
(§6) Mc: Worm death rate (%) in a section not treated with a test compound

Spodoptera litura [2] = assay: Test Example 2: cabbage leaf immersion test, insecticidal rate on fourth-instar larvae; assay type: in vivo; settings: after 2 days
Procedure: as §1, §2
(1) The formulation A was diluted with water to prepare a water dilution having an active ingredient concentration shown in Table 2. To the water dilution, 1/5,000 volume of a spreading agent (Sindain, manufactured by Sumitomo Chemical Takeda Agro Co., Ltd.) was added to prepare a test solution containing the present compound 1.
The formulation B was diluted with water to prepare a water dilution having an active ingredient concentration shown in Table 2. To the water dilution, 1/5,000 volume of a spreading agent (Sindain, manufactured by Sumitomo Chemical Takeda Agro Co., Ltd.) was added to prepare a test solution containing the present compound 2.
as §3, with “2.” for “1.”
as §4, with “(2)” for “(4)”, “formula. Insecticidal rate (%)=100×(Mt−Mc)/(100−Mc)” for “formula.”
as §5, §6

Compound | Theoretical value of insecticidal rate (%) (Spodoptera litura [1]; 0.73 ppm single ingredient) | Found value of insecticidal rate (%) (Spodoptera litura [1]; 0.73 ppm single ingredient) | Theoretical value of insecticidal rate (%) (Spodoptera litura [1]; 2.9 ppm single ingredient) | Found value of insecticidal rate (%) (Spodoptera litura [1]; 2.9 ppm single ingredient) | Found value of insecticidal rate (%) (Spodoptera litura [2]; 0.25 ppm single ingredient) | Found value of insecticidal rate (%) (Spodoptera litura [2]; 2.5 ppm single ingredient) | Theoretical value of insecticidal rate (%) (Spodoptera litura [1]; 2.5 ppm single ingredient) | Found value of insecticidal rate (%) (Spodoptera litura [1]; 2.5 ppm single ingredient)
spinetoram [Spinetoram (present compound 1)] | 0 | 0 | 0 | 0 | 0 | 0 | – | –
FC(F)(F)c1ccc(OCCCOc2c(Cl)cc(OCC=C(Cl)Cl)cc2Cl)nc1 [Pyridalyl (present compound 2), 2,6-dichloro-4-(3,3-dichloroallyloxy)phenyl 3-[5-(trifluoromethyl)-2-pyridyloxy]propyl ether] | – | – | – | – | 0 | 16.7 | 0 | 0
